This passage reports EC50, Activity and IC50 results from ChEMBL document CHEMBL1147183, “Design, synthesis, and evaluation of non-steroidal farnesoid X receptor (FXR) antagonist” (Bioorg Med Chem, 2007).

For orientation: EC50 means the concentration at which the effect is half-maximal. A low value points to a more potent agent. A word on the IC50: it is the concentration that gives 50% inhibition.

The source made the active and inactive calls. The rule behind the calls is not given here.

The first experiment has as its target T1, Bile acid receptor (Homo sapiens, UniProt Q96RI1).
T1 sequence (Q96RI1 whole entry): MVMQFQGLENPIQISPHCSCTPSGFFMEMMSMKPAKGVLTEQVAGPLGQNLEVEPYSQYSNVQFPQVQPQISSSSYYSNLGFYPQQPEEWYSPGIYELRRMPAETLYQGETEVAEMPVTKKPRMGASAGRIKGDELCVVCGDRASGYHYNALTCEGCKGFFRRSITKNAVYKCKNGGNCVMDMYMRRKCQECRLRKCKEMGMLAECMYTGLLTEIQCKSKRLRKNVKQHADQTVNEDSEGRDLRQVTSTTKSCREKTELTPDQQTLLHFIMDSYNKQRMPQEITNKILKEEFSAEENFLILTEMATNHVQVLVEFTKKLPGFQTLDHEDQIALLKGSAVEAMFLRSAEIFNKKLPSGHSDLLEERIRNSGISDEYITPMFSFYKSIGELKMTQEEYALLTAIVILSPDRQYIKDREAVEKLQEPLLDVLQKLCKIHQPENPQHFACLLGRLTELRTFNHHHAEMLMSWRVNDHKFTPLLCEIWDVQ
In words: Agonistic activity at FXR in HEK293 cells by GAL4 transactivation activity. Type of experiment: functional, cell-based.
In turn, `CC(C)c1onc(-c2c(Cl)cccc2Cl)c1COc1ccc(C(=O)N(C)c2cccc(C(=O)O)c2)c(Cl)c1` yielded an EC50 of 3.1 µM.

Compound `CC(C)(C)c1onc(-c2c(Cl)cccc2Cl)c1COc1ccc(/C=C/c2cccc(C(=O)O)c2)c(Cl)c1` came in with an EC50 of 1.3 µM.

Compound `CC(C)(C)c1onc(-c2c(Cl)cccc2Cl)c1COc1ccc(C(=O)Nc2cccc(C(=O)O)c2)c(Cl)c1` displayed an EC50 of 1.3 µM.

`CCCNC(=O)c1cccc(/C=C/c2ccc(OCc3c(-c4c(Cl)cccc4Cl)noc3C(C)C)cc2Cl)c1` showed an EC50 of 9 µM.

`CCCN(C(=O)c1ccc(OCc2c(-c3c(Cl)cccc3Cl)noc2C(C)C)cc1Cl)c1cccc(C(=O)O)c1` showed an EC50 of 2.1 µM.

`CC(C)c1onc(-c2c(Cl)cccc2Cl)c1COc1ccc(C(=O)Nc2cccc(C(=O)O)c2)c(Cl)c1` registered an EC50 of 3 µM.

In the case of `CC(C)c1onc(-c2c(Cl)cccc2Cl)c1COc1ccc(/C=C/c2cccc(C(=O)N(Cc3ccccc3)Cc3ccccc3)c2)c(Cl)c1`, a half-maximal effect (EC50) was put at 35.1 µM.

As to `CC(C)c1onc(-c2c(Cl)cccc2Cl)c1COc1ccc(C(=O)N(Cc2ccccc2)c2cccc(C(=O)O)c2)c(Cl)c1`, the concentration giving a half-maximal response (EC50) was 2.5 µM.

In the case of `CC(C)c1onc(-c2c(Cl)cccc2Cl)c1COc1ccc(C(=O)N(CCc2ccccc2)c2cccc(C(=O)O)c2)c(Cl)c1`, the EC50 is 0.84 µM.

The target of the next experiment is T2, Bile acid receptor (Homo sapiens) (UniProt Q96RI1).
T2 sequence (whole entry): T1 sequence (Q96RI1 whole entry)
In words: Agonistic activity at FXR in HEK293 cells at 100 uM by GAL4 transactivation activity. Type of experiment: functional, cell-based.
With `O=C(O)c1cccc(/C=C/c2ccc(OCc3c(-c4c(Cl)cccc4Cl)noc3-c3ccc(-c4ccccc4)cc3)cc2Cl)c1`, the result was inactive.

Regarding `O=C(O)c1cccc(NC(=O)c2ccc(OCc3c(-c4c(Cl)cccc4Cl)noc3-c3ccc4ccccc4c3)cc2Cl)c1`, the outcome was inactive.

On to `O=C(O)c1cccc(NC(=O)c2ccc(OCc3c(-c4c(Cl)cccc4Cl)noc3-c3ccc(-c4ccccc4)cc3)cc2Cl)c1`, for which the outcome was inactive.

On to `C/C=C1\C(=O)C[C@H]2[C@@H]3CCC4=CC(=O)CC[C@]4(C)[C@H]3CC[C@]12C`, for which the result was inactive.

As to `CC(C)c1onc(-c2ccc(-c3ccccc3)cc2)c1COc1ccc(/C=C/c2cccc(C(=O)O)c2)c(Cl)c1`, the outcome was inactive.

Consider `O=C(O)c1cccc(/C=C/c2ccc(OCc3c(-c4c(Cl)cccc4Cl)noc3-c3ccc4ccccc4c3)cc2Cl)c1`, for which the result was inactive.

Regarding `CC(C)c1onc(-c2ccc3ccccc3c2)c1COc1ccc(/C=C/c2cccc(C(=O)O)c2)c(Cl)c1`, the result was inactive.

For the compound `O=C(O)c1cccc(/C=C/c2ccc(OCc3c(-c4c(Cl)cccc4Cl)noc3-c3ccccc3)cc2Cl)c1`, the result was inactive.

The next experiment addresses T1, Bile acid receptor. The experiment in a line: Inhibition of FXR in HEK293 cells in presence of CDCA by GAL4 transactivation activity. In kind it is cell-based.
As to `O=C(O)c1cccc(/C=C/c2ccc(OCc3c(-c4c(Cl)cccc4Cl)noc3-c3ccc(-c4ccccc4)cc3)cc2Cl)c1`, the IC50 came out at 33.9 µM.

Take `O=C(O)c1cccc(NC(=O)c2ccc(OCc3c(-c4c(Cl)cccc4Cl)noc3-c3ccc4ccccc4c3)cc2Cl)c1`: the IC50 was found to be 4 µM.

Consider `O=C(O)c1cccc(NC(=O)c2ccc(OCc3c(-c4c(Cl)cccc4Cl)noc3-c3ccc(-c4ccccc4)cc3)cc2Cl)c1`, for which the half-inhibitory concentration (IC50) amounted to 3.7 µM.

Consider `O=C(O)c1cccc(/C=C/c2ccc(OCc3c(-c4c(Cl)cccc4Cl)noc3-c3ccc4ccccc4c3)cc2Cl)c1`, for which the IC50 is 22.2 µM.

In the case of `O=C(O)c1cccc(/C=C/c2ccc(OCc3c(-c4c(Cl)cccc4Cl)noc3-c3ccccc3)cc2Cl)c1`, the IC50 was found to be 15.8 µM.

Another experiment addresses T3, Progesterone receptor (Homo sapiens) (UniProt P06401).
T3 sequence (whole entry): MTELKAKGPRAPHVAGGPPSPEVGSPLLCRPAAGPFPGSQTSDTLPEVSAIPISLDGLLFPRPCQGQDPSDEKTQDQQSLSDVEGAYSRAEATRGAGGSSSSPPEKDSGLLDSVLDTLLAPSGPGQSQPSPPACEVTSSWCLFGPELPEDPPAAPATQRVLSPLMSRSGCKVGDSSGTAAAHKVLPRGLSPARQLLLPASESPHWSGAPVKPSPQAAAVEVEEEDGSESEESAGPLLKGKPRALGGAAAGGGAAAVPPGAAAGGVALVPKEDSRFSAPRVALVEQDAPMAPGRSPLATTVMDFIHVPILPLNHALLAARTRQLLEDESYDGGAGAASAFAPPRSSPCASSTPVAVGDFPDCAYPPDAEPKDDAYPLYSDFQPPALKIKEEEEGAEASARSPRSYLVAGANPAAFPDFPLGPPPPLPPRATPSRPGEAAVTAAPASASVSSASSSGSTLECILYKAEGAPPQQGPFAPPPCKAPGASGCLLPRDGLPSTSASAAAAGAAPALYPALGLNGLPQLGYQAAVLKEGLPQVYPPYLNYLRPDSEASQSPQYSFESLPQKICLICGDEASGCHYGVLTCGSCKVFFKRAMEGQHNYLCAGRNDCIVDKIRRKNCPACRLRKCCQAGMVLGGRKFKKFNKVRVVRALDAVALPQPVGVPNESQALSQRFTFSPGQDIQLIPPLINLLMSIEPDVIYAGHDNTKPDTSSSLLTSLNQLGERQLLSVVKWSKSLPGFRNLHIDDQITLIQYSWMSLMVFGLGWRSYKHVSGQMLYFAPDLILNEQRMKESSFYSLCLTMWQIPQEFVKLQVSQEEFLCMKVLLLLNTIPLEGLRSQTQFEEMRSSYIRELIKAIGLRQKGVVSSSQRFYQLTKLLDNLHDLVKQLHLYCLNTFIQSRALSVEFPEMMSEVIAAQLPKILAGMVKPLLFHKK
The experiment in a line: Activity against PR by transactivation activity at 30 uM.
As to `O=C(O)c1cccc(NC(=O)c2ccc(OCc3c(-c4c(Cl)cccc4Cl)noc3-c3ccc4ccccc4c3)cc2Cl)c1`, the result was inactive.

Turning to `O=C(O)c1cccc(NC(=O)c2ccc(OCc3c(-c4c(Cl)cccc4Cl)noc3-c3ccc(-c4ccccc4)cc3)cc2Cl)c1`, the outcome was Active.

The target in a further experiment is T2, Bile acid receptor (Homo sapiens). In words: Activity at FXR assessed by ligand-induced co-repressor recruitment by two-hybrid assay system.
In the case of `O=C(O)c1cccc(NC(=O)c2ccc(OCc3c(-c4c(Cl)cccc4Cl)noc3-c3ccc4ccccc4c3)cc2Cl)c1`, the result was inactive.

For the compound `C/C=C1\C(=O)C[C@H]2[C@@H]3CCC4=CC(=O)CC[C@]4(C)[C@H]3CC[C@]12C`, the result was inactive.
